Data from publication doi:10.1101/2025.11.13.688260v1 (biorxiv, 2025).

target: human CBL-B (Homo sapiens, UniProt Q13191); assay: TR-FRET ubiquitin ligase assay; assay type: biochemical
Sequence (Q13191 whole entry): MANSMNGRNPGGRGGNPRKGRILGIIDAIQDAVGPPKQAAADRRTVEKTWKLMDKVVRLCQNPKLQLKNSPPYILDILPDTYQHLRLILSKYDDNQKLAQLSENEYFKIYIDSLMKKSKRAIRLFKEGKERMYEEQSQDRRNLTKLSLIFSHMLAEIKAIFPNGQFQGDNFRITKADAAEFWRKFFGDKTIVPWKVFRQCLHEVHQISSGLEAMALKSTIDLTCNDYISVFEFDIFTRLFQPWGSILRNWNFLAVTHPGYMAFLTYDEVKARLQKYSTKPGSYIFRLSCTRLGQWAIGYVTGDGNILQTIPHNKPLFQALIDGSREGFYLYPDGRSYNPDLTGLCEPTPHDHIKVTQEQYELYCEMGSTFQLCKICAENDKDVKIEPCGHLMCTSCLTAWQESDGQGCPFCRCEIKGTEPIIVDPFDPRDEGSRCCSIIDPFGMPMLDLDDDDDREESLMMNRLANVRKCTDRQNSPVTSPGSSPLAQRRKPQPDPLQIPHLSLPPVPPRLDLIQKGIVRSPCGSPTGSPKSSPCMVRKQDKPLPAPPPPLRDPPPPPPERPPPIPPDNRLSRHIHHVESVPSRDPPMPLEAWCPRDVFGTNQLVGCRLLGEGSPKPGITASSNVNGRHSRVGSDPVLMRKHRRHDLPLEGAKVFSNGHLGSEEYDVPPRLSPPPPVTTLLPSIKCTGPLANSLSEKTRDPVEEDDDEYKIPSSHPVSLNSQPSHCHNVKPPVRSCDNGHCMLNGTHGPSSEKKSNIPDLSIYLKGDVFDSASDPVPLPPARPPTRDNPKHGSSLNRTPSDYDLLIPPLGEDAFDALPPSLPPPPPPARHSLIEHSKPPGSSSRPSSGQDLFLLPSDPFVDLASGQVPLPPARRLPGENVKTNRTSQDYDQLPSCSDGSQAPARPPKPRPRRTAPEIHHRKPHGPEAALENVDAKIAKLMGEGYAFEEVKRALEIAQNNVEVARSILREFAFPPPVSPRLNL

Row | Structure (SMILES) | IC50
1 | Cn1cnnc1[C@]1(c2cccc(-c3cc4ccccc4[nH]c3=O)c2)C[C@H](C)C1 [compound 4, Cmpd. 4] | 1190 nM
2 | C[C@H]1CCCN(Cc2cccc3cc(-c4cccc([C@]5(c6nncn6C)C[C@@H](C)C5)c4)c(=O)[nH]c23)C1 [compound 6, Cmpd. 6] | 16.8 nM
3 | CC(NC1CCCC1)c1ccc(F)c2cc(-c3cccc([C@]4(c5nncn5C)C[C@@H](C)C4)c3)c(=O)[nH]c12 (stereo partly drawn) [compound 12, Cmpd. 12] | 19.7 nM
